These results are taken from publication PMC10531346, “Structural Similarities and Overlapping Activities among Dihydroflavonol 4-Reductase, Flavanone 4-Reductase, and Anthocyanidin Reductase Offer Metabolic Flexibility in the Flavonoid Pathway” (International Journal of Molecular Sciences, 2023).

Assay [1] deals with T1, PvDFRa (Panicum virgatum, UniProt A0A8T0SQV2). Nature of the assay: PvDFRa activity against anthocyanidins (ANR activity). It is filed as biochemical. Conditions: anthocyanidin reduction. As for the experimental part: (§1) To measure any overlapping specificity among FNR, DFR, and ANR for anthocyanidins, their activity against cyanidin, pelargonidin, and delphinidin were assayed.
(§2) LC-MS was used to analyze the various flavonoids using a Waters Xevo TQ-MS mass spectrometer interfaced with a Waters Acquity UPLC. […] The chromatographic conditions used were based on. The mobile phase used was a binary gradient of water with 0.1% (v/v) formic acid (Solvent A) and methanol with 0.1% formic acid (Solvent B). The solvent flow rate was 0.2 mL min^-1. and the initial solvent composition was 20% B/80% A and was constant for the first minute following sample injection. Gradient elution was accomplished by increasing the ratio of solvent B to solvent A from 20:80 to 65:35 over 10 min. using a linear gradient, and then increased to 100:0 over the next 4 min. The composition was maintained at 100% B for 5 min., returned to 80%A/20%B over the next 3 min., and held at that ratio for the next 3 min. […]
(§3) Appropriate daughter ions to be used for multiple reaction monitoring (MRM) of (-)-epicatechin were identified by infusing standard and recording spectra. The optimum cone voltage and collision energy of epicatechin were also determined in these infusion experiments. […]

For assay [2], the system named is SbFNR2. Put plainly: SbFNR2 activity assay (dihydroflavonols, flavanones, anthocyanidins). As to conditions: anthocyanidin reduction. Type of assay: biochemical, Sorghum bicolor.
Assay [3] deals with SbDFR3 (Sorghum bicolor, UniProt C5XVF8). Nature of the assay: SbDFR3 activity against anthocyanidins (ANR activity). Conditions: anthocyanidin reduction. It is filed as biochemical. As for the experimental part:
as §1, §2, §3

Assay [4] addresses T2, SbFNR1 (Sorghum bicolor, UniProt C5YGL7). Put plainly: SbFNR1 activity assay (dihydroflavonols, flavanones, anthocyanidins). It is filed as biochemical. Conditions: anthocyanidin reduction.
The target of assay [5] is T2, SbFNR1. Put plainly: Isothermal titration calorimetry, SbFNR1. Conditions: ITC. It is filed as binding.
Assay [6] has as its target T1, PvDFRa. Nature of the assay: Isothermal titration calorimetry, PvDFRa. Conditions: ITC. It is filed as binding. As for the experimental part: In order to obtain thermodynamic parameters for the association, isothermal titration calorimetry (ITC) for PvDFRa was performed (Figure S8, Table 2).
Isothermal Titration Calorimetry: Purified PvDFR was dialyzed to a buffer containing 50 mM Bis-Tris, 50 mM Tricine (pH 6.5), 200 mM NaCl and 2.5% (v/v) glycerol. Substrates were dissolved in the same buffer used for enzyme dialysis. Analysis was conducted utilizing a Microcal ITC 200 (Malvern). […] A total of 22 injections were made, each with a volume of 2 uL. Data analysis was conducted utilizing Origin Software 7 and modeled to the appropriate nonlinear regression.

Consider `Oc1cc(O)c2cc(O)c(-c3ccc(O)c(O)c3)[o+]c2c1` [cyanidin], for which the “activity as % of the activity of SbANR” value in assay [1] is given as 0.5%; in assay [3] it was 0.9%. For the same molecule, the “efficiency relative to the activity of SbANR” value is 7.4% in assay [2] and 11.9% in assay [4].
As for `Oc1ccc(-c2[o+]c3cc(O)cc(O)c3cc2O)cc1` [pelargonidin], the “activity as % of the activity of SbANR” value in assay [1] amounted to 13.8%; in assay [3], 2.3%. Also, the “efficiency relative to the activity of SbANR” value in assay [2] is listed as 42.7%; in assay [4], 2.1%.
Regarding NADP^+, in assay [5], the “∆H” value is -1.12 ± 0.72 kcal/mol and the “∆S” value is −15.4 Cal mol^−1 K^−1. Moreover, the “NADP^+-binding affinity relative to affinity for DHQ” value in assay [6] is “roughly 100 times”. Also, in assay [6] (298 K), the “∆H” value was -9.41 ± 0.15 kcal/mol and the “∆S” value was −0.226 Cal mol^−1 K^−1.
